Experimental data taken from US20120115782A1, “COMPOSITIONS AND METHODS FOR TREATING OR INHIBITING LIVER INJURY” (Yale University, priority 2009, published 2012).

How the values were obtained:
[1] = tested on: APAP induced hepatotoxicity in wild-type mice; assay: Acetaminophen (APAP) induced hepatotoxicity in mice: survival, serum ALT, liver histology; format: in vivo, mouse (C57BL/6)
Protocol: Animals. C57BL/6 mice were purchased from commercial sources. NALP3 −/−, IL-18 −/− ASC −/−, IPAF −/− and TLR9 −/− mice were backcrossed nine generations onto the C57BL/6 background. Caspase 1 −/− mice were backcrossed 5-6 generations onto the C57BL/6 background. These mice have been described previously (39, 40). IL-1β was neutralized in by using the anti-IL-1β antibody from clone B122 (a gift of R. Schreiber, Washington University) at a dose of 0.2 mg/mouse iv twice a day for a total of 48 hours after giving APAP. Control mice received Armenian hamster isotype control antibody. For survival experiments animals were euthanized when they became moribund using criteria of lack of response to stimuli or lack of righting reflex. Animal protocols were approved by the Yale University animal care and use committee. [include references for IPAF−/− (M. Lara-Tejero et al. JEM 2006) and IL-18−/−. Need to add TLR9−/− and TLR3−/−] Acetaminophen induced hepatotoxicity. APAP (Sigma, Mo.) solution was made fresh for each experiment in PBS at 20 mg/ml and heated in a water bath to 55° C. to dissolve. APAP was dosed at 500 mg/kg and injected I.P after 15 hrs of starvation. Animals were euthanized by ketamine/xylazine injection at 12 hours for collection of serum, isolation of liver lymphocytes or collection of liver tissue for histology, or they were observed every four hours for 72 hours until they reached criteria for euthanasia (lack of response to stimuli or lack of righting reflex).
Aspirin/clopidogrel/SC-560. Aspirin (Sigma, Mo.) was made fresh for each experiment. For dosing prior to APAP it was dissolved in single deionized water at 60 mg/l and heated to 42° C. with rapid stirring to dissolve, then rapidly placed in an ice water bath to cool. Aspirin in water was given to the mice 60-72 hours prior to APAP injection. Assuming water consumption of 3-5 ml per day this dose would be equivalent to a 300-500 mg dose in an 80 kg adult human. For co-administration of APAP and aspirin, aspirin was gavaged at a dose of 6 mg/kg in a volume of 100 ul of water immediately after ip injection of APAP. Clopidogrel (Gilead Pharmaceuticals, CA.) was dissolved in PBS at 6 mg/ml and administered by gavage of 100 ul, 30 mg/kg, every 24 hours beginning 48 hours prior and ending 24 hours after APAP injection. Cox-1 inhibitor (SC-560). SC-560 (Cayman chemical, MI) was dissolved at 50 mg/ml in DMSO and further dissolved in PBS in order to gavage a dose of 5 mg/kg in 100 ul. It was administered twice per day beginning 60 hours prior to Tylenol and continued for 48 hours after APAP injection as previously established (41).
Uric Acid Peritonitis. Peritonitis was induced with uric acid crystals as previously described by injecting 3 mg of MSU intraperitoneally per mouse (27). Three hours after injection peritoneal lavage was performed on mice euthanized by isoflurane inhalation. Neutrophil infiltration was evaluated by flow cytometry. The percent of Gr-1 (BD Pharmingen, CA) positive cells was multiplied by the total cell counts. Liver sinusoidal endothelial cell (LSEC) isolation. After in-situ pronase digestion the non-parenchymal cell suspension is centrifuged for 5 min at 100 g to remove most of the parenchymal cells. This process is repeated until no pellet is observed. The supernatant enriched in LSEC is centrifuged for 10 min at 350 g. The pellet is resuspended in PBS and centrifuged for 10 min at 350 g. The cells are resuspended in. PBS and layered (3.3 ml) on the top of two-step percoll gradient (put the 5 ml of 50% percoll at the bottom and put the 6.6 ml of 25% percoll at the top). The gradients are centrifuged at 900 g for 20 min and the intermediate layer included LSEC is collected and cultured in the media (EGM™-2MV—Microvascular Endothelial Cell Medium-2, CAMBREX, Charles City, Iowa). ODN2088 and IRS 954 injection.

IFN-γ = assay: Q-PCR of whole liver after APAP: IFN-γ; format: in vivo, mouse; conditions: aspirin treatment
Protocol: (§1) Uric Acid Peritonitis. Peritonitis was induced with uric acid crystals as previously described by injecting 3 mg of MSU intraperitoneally per mouse (27). Three hours after injection peritoneal lavage was performed on mice euthanized by isoflurane inhalation. Neutrophil infiltration was evaluated by flow cytometry. The percent of Gr-1 (BD Pharmingen, CA) positive cells was multiplied by the total cell counts. Liver sinusoidal endothelial cell (LSEC) isolation. After in-situ pronase digestion the non-parenchymal cell suspension is centrifuged for 5 min at 100 g to remove most of the parenchymal cells. This process is repeated until no pellet is observed. […] TLR9 antagonist (ODN2088, 50 microg×2) or PBS, were injected ip into wild-type mice immediately after and at 6 hours after APAP injection and total mouse liver was obtained 12 hours after APAP injection for quantitative Q-PCR for IL-1β. […] Quantitative Real-time PCR. […] Expression of glyceraldehyde 3-phosphate dehydrogenase was used to standardize the samples, and the results were expressed as a ratio compared with untreated HSCs. Quantitative Real-time PCR for mRNA expression of IL-18, IL-1β, TNF-α and IFN-γ. […] Quantitative real-time PCR (Q-PCR) was performed for IL-18 and IL-1β using commercial primer-probe sets (Applied Biosystems, CA) and the Applied Biosystem 7500 real time PCR system. […]

[2] = tested on: APAP toxicity in mice and rats; conditions: aspirin 200-600 mg/kg; cited from earlier work
IL-1β = assay: ELISA for serum IL-1β after APAP; format: in vivo, mouse; conditions: ASA in drinking water
[3] = tested on: THP1 cells (pro-IL-1β transcript); assay: THP1 cells stimulated with LPS, real-time PCR for pro-IL-1β; format: cell-based, human; conditions: overnight with aspirin (1.5 mM, 0.15 mM), then LPS 10 μg/ml for 8 hours
Protocol: as §1

pro-IL-1β transcript = assay: Q-PCR of whole liver 12 hours after APAP: pro-IL-1β; format: in vivo, mouse; conditions: aspirin pre-treatment in drinking water
Protocol: as §1

NALP3 inflammasome = assay: Uric acid (MSU crystal) peritonitis, model of NALP3 inflammasome activation; format: in vivo; conditions: low dose aspirin (60 mg/l) in drinking water three days prior; lavage 3 hours after MSU 3 mg/mouse ip
Protocol: as §1

pro-IL-18 transcript = assay: Q-PCR of whole liver 12 hours after APAP: pro-IL-18; format: in vivo, mouse; conditions: aspirin pre-treatment in drinking water
Protocol: as §1

TNF-α = assay: Q-PCR of whole liver after APAP: TNF-α; format: in vivo, mouse; conditions: aspirin treatment
Protocol: as §1

SMILES: COc1ccc(-n2nc(C(F)(F)F)cc2-c2ccc(Cl)cc2)cc1 [SC-560]
- protection against APAP toxicity (survival) ([1]; SC-560 gavage 5 mg/kg twice daily, from 60 hours prior to 48 hours after APAP): did not protect

SMILES: CC(=O)Oc1ccccc1C(=O)O [aspirin, acetylsalicylic acid]
- expression of IFN-γ, whole liver after APAP (IFN-γ): reduced
- liver injury from APAP [2]: reduce liver injury
- survival from APAP [2]: not improve survival
- serum IL-1β levels induced by APAP (IL-1β): significant reduction
- up-regulation of pro-IL-1β transcript by LPS in THP1 cells [3]: reduced
- survival after APAP ([1]; aspirin 60 mg/l in drinking water for 3 days before APAP 500 mg/kg ip, 72 hours): markedly improved survival
- survival, aspirin given concordantly with APAP ([1]; aspirin gavaged 6 mg/kg immediately after ip APAP): 43%+/−11%
- liver histology (H&E) 12 hours after APAP ([1]; aspirin in drinking water three days prior to APAP): significant reduction in APAP induced liver injury and hemorrhage
- serum ALT 12 hrs after APAP ([1]; pre-treatment with aspirin in drinking water): significantly lower serum ALT
- increase in pro-IL-1β message by APAP, whole liver (pro-IL-1β transcript): reduced to normal levels
- neutrophil exudates (Gr-1 positive) in MSU peritonitis (NALP3 inflammasome): eightfold reduction
- increase in pro-IL-18 message by APAP, whole liver (pro-IL-18 transcript): reduced to normal levels
- expression of TNF-α, whole liver after APAP (TNF-α): reduced

SMILES: COC(=O)[C@H](c1ccccc1Cl)N1CCc2sccc2C1 [clopidogrel]
- protection against APAP toxicity (survival) ([1]; clopidogrel gavage 30 mg/kg every 24 hrs, from 48 hours prior to 24 hours after APAP): did not protect
